Test results: patent US12702670B2, “Compositions and methods for treating breast cancer” (The Regents of the University of California, priority 2020, dated 2026)
Entries after “also recorded” stand apart in the source; their conditions may differ.

Columns and labels:
[1] = system: IGF2-expressing TNBC cells; assay: TNBC cell proliferation in vitro; format: cell-based, human; conditions: alone and combined
murine 4T1 TNBC = assay: Cell viability of murine 4T1 TNBC in vitro; format: cell-based
Protocol: After seeding TNBC cells for 24 hr, cells were exposed to selected combinations of BMS-754807 (20 μM), enzalutamide (20 μM), and NVP-AEW541 (8 μM) for 72 h. Cell viability was tested by CellTiter 96® aqueous non-radioactive cell proliferation assay (error bar=SEM; n=8; **P<0.001 *P<0.05). Results shown as % of vehicle treated controls.

AR = AR levels in TNBC cells; format: cell-based; conditions: in vitro
4T1 TNBC cells = assay: Murine 4T1 TNBC model in syngeneic BALB/c mice; format: in vivo
Protocol: FIG. 6A-D show a combination treatment of BMS with anti PD-L1 checkpoint antibody suppresses 4T1 TNBC xenograft progression in vivo. TNBC 4T1 cells (2×105) were implanted in the mammary fat pads of BALB/c female mice (6-week old) using established methods. Mice were then randomized for treatment when tumor volumes were approx. 200 mm3. Mice were treated with either vehicle control (Con), BMS 10 mg/kg, by oral gavage, daily (BMS), anti-PD-L1 checkpoint antibody from Biolegend (anti-CD274/B7-H1/PD-L1 clone 10F.9G2, 100 μg/mouse IP in PBS, Q3 days) (Ab) or combination therapy with BMS and anti-PD-L1 antibody (BMS+Ab). Tumor sizes were recorded Q 2-3 days; and mice were weighed twice weekly. Studies used 5 mice/group.
TNBC clinical trials have shown a potential benefit of anti-PD-L1 antibodies as ICIs for anti-TNBC therapy. […] Thus, 4T1 cells were implanted in mammary fat pads of female syngeneic BALB/c mice to assess antitumor efficacy of BMS-754807 alone and combined with anti-PD-L1 antibodies in mice with intact immune systems (FIG. 6). After 10 days of treatment, tumors were harvested and processed for mass cytometry analyses to assess changes in immune cell subsets under different treatment conditions in FIG. 6.

[2] = system: IGF2-expressing TNBC cells; conditions: in vitro; statement carries reference 1; cited from earlier work
HCC 1937 TNBC cell line = assay: Scratch wound migration assay (IncuCyte S3); format: cell-based; conditions: media conditioned with IGF2 alone (100 ng/ml), 48 h
Protocol: (§1) MDA-MB-231 and HCC 1937 TNBC cell lines were cultured in complete media in 96-welled plates. In each well 60,000 cells were plated. Scratch wounds were made using Unique WoundMaker™. Wound images were collected every 2 h for 48 h using the IncuCyte S3 Live-Cell Analysis System. Media containing IGF2 (100 ng/ml) was refreshed daily. […] Magnification 100×. P<0.05. […] Magnification 100×. P<0.05. FIGS. 4C & D show conditioned media containing a combination of IGF1R/IR antagonists. […] BMS/NVP=BMS-754807 (20 uM) and NVP-AEW541 (8 uM).
(§2) In vitro TNBC cell migration is stimulated in media conditioned with IGF2 alone (FIGS. 4A & 4B).

[3] = system: MDA-MB-231 TNBC cell line; assay: Scratch wound migration assay (IncuCyte S3); format: cell-based, human; conditions: media conditioned with IGF2 alone (100 ng/ml), 48 h
Protocol: as §1, §2

| Compound | anti-proliferative effects on IGF2-expressing TNBC cells [1] | cell viability (murine 4T1 TNBC) | levels of ARs in TNBC cells (AR) | tumor volume / TNBC progression (4T1 TNBC cells; BALB/c mice, 4T1 in mammary fat pads, BMS 10 mg/kg oral gavage daily, anti-PD-L1 antibody 100 μg/mouse IP Q3 days) | myeloid derived suppressor cells (MDSCs), total and PMN-MDSC, in tumors (4T1 TNBC cells; mass cytometry of 4T1 tumors harvested after 10 days of treatment, BMS 10 mg/kg oral daily, Ab 100 μg IP Q3 days) | effector CD8+ and CD4+ tumor infiltrating lymphocytes (TILs) (4T1 TNBC cells; mass cytometry of 4T1 tumors, BMS 10 mg/kg oral daily, Ab 100 μg IP Q3 days) | human TNBC cell proliferation [2] | cell migration (HCC 1937 TNBC cell line) | cell migration [3] |
| --- | --- | --- | --- | --- | --- | --- | --- | --- | --- |
| C[C@@]1(C(=O)Nc2ccc(F)nc2)CCCN1c1nc(Nc2cc(C3CC3)n[nH]2)c2cccn2n1 [BMS-754807] | anti-proliferative effects | Reduction of cell viability | decrease levels of ARs | markedly reduced tumor volume; also recorded: significant antitumor effects | decreased levels | significantly increased | reduce human TNBC cell proliferation | – | – |
| Nc1ncnc2c1c(-c1cccc(OCc3ccccc3)c1)cn2C1CC(CN2CCC2)C1 (centres unmarked) [NVP-AEW541] | anti-proliferative effects | – | decrease levels of ARs | – | – | – | – | – | – |
| IGF2: insulin-like growth factor 2, hormone added to media at 100 ng/ml | – | – | – | – | – | – | – | stimulated | stimulated |
